Laboratory results published in patent publication US20250034171A1, “IMIDAZOPYRIDINE AMIDES AND RELATED COMPOUNDS FOR USE IN THE TREATMENT OF BACTERIAL INFECTIONS” (priority 2021, published 2025).
Converted amounts (≈) assume the structure as drawn. Where two headings read alike, the source gives them in different places.

System: Mycobacterium tuberculosis strain H37Rv
Assay: Test 2: MIC determination against M. tuberculosis, resazurin fluorescence
Format: cell-based
Details: Test 2, M. tuberculosis H37Rv; for MIC90: read-out: Bacterial activity MIC90; for IC50: read-out: Bacterial activity pMIC50 (converted)
[1] = Mycobacterium tuberculosis, H37RV

| Structure (SMILES) | MIC90 [1] [µM] | IC50 [1] [pM] | Bacterial activity pMIC50 | MIC90 [µM] |
| --- | --- | --- | --- | --- |
| CCc1nc2n(c1C(=O)NCc1ccc(-c3nc4n(n3)CC[C@H](C(F)(F)F)C4)cc1)C[C@H](C)CC2 (single isomer, unassigned) [Compound 65] | 0.039 (≈ 0.019 µg/mL) | 13500 | – | – |
| CCc1nc2n(c1C(=O)NCc1ccc(-c3nc4n(n3)CC[C@@H](C(F)(F)F)C4)cc1)CC[C@H](C)C2 (single isomer, unassigned) [Compound 66] | 0.24 (≈ 0.117 µg/mL) | 51300 | – | – |
| CCc1nc2n(c1C(=O)NCc1ccc(-c3nc4n(n3)CC[C@H](C(F)(F)F)C4)cc1)CC[C@@H](C)C2 (single isomer, unassigned) [Compound 67] | 0.18 (≈ 0.0876 µg/mL) | 40700 | – | – |
| CCc1nc2n(c1C(=O)NCc1ccc(-c3nc4n(n3)CC[C@H](C(F)(F)F)C4)cc1)CC[C@H](C)C2 (single isomer, unassigned) [Compound 68] | 0.23 (≈ 0.112 µg/mL) | 47900 | – | – |
| CCc1nc2n(c1C(=O)NCc1ccc(-c3nc4n(n3)CC[C@H](C(F)(F)F)C4)cc1)C[C@@H](C)CC2 (single isomer, unassigned) [Compound 69] | – | – | 7.95 | 0.031 (≈ 0.0151 µg/mL) |
| CCc1nc2n(c1C(=O)NCc1ccc(-c3nc4n(n3)CC[C@@H](C(F)(F)F)C4)cc1)CC[C@@H](C)C2 (single isomer, unassigned) [Compound 70] | 0.23 (≈ 0.112 µg/mL) | 56200 | – | – |
| CCc1nc2n(c1C(=O)NCc1ccc(-c3nc4n(n3)CC[C@@H](C(F)(F)F)C4)cc1)C[C@H](C)CC2 (single isomer, unassigned) [Compound 71] | 0.024 (≈ 0.0117 µg/mL) | 9550 | – | – |
| CCc1nc2n(c1C(=O)NCc1ccc(-c3nc4n(n3)CC[C@@H](C(F)(F)F)C4)cc1)C[C@@H](C)CC2 (single isomer, unassigned) [Compound 72] | 0.042 (≈ 0.0204 µg/mL) | 13800 | – | – |
| CCc1nc2n(c1C(=O)NCc1ccc(-c3nc4n(n3)CC[C@H](C(F)(F)F)C4)cc1)C[C@@H](C)CC2 (single isomer, unassigned) [Compound 75] | – | – | 7.48 | 0.086 (≈ 0.0418 µg/mL) |
| CCc1nc2n(c1C(=O)NCc1ccc(-c3nc4n(n3)CC[C@@H](C(F)(F)F)C4)c(F)c1)CCCC2 (single isomer, unassigned) [Compound 76] | – | – | 7.55 | 0.09 (≈ 0.0441 µg/mL) |
| CCc1nc2ccccn2c1C(=O)NCc1ccc(-c2nc3n(n2)CC[C@@H](C(F)(F)F)C3)c(F)c1 (single isomer, unassigned) [Compound 78] | – | – | 8.08 | 0.028 (≈ 0.0136 µg/mL) |
| CCc1nc2ccccn2c1C(=O)NCc1ccc(-c2nc3n(n2)CC[C@H](C(F)(F)F)C3)c(F)c1 (single isomer, unassigned) [Compound 79] | – | – | 7.99 | 0.035 (≈ 0.017 µg/mL) |
| CCc1nn2c(c1C(=O)NCc1ccc(-c3nc4n(n3)CC[C@H](C(F)(F)F)C4)cc1)C[C@H](C)CC2 (single isomer, unassigned) [Compound 81] | 0.19 (≈ 0.0924 µg/mL) | 57500 | – | – |
| CCc1nn2c(c1C(=O)NCc1ccc(-c3nc4n(n3)CC[C@@H](C(F)(F)F)C4)cc1)C[C@@H](C)CC2 (single isomer, unassigned) [Compound 82] | 0.087 (≈ 0.0423 µg/mL) | 30900 | – | – |
| CCc1nn2c(c1C(=O)NCc1ccc(-c3nc4n(n3)CC[C@@H](C(F)(F)F)C4)cc1)C[C@H](C)CC2 (single isomer, unassigned) [Compound 83] | 0.23 (≈ 0.112 µg/mL) | 63100 | – | – |
| CCc1nc2ncc(C)cn2c1C(=O)NCc1ccc(-c2nc3n(n2)CCC(C)C3)cc1 (single isomer, unassigned) [Compound 94] | – | – | 7.86 | 0.039 (≈ 0.0168 µg/mL) |
| CCc1nc2ncc(C)cn2c1C(=O)NCc1ccc(-c2nc3n(n2)CC[C@@H](C(C)(F)F)C3)cc1 (single isomer, unassigned) [Compound 104] | – | – | 8.25 | 0.015 (≈ 0.00719 µg/mL) |
| CCc1nc2ncc(C)cn2c1C(=O)NCc1ccc(-c2nc3n(n2)CC[C@H](C(C)(F)F)C3)cc1 (single isomer, unassigned) [Compound 105] | – | – | 8.24 | 0.014 (≈ 0.00671 µg/mL) |
| CCc1nc2ncc(C)cn2c1C(=O)NCc1ccc(-c2cn3c(n2)CC(COC)CC3)cc1 (single isomer, unassigned) [Compound 118] | – | – | 7.48 | 0.083 (≈ 0.0381 µg/mL) |
| CCc1nc2n(c1C(=O)NCc1ccc(-c3nc4n(n3)CC[C@H](C(F)(F)F)C4)cc1)CC[C@@H](O)C2 (single isomer, unassigned) [Compound 131] | > 0.5 | > 501000 | – | – |
| CCc1nc2n(c1C(=O)NCc1ccc(-c3nc4n(n3)CC[C@H](C(F)(F)F)C4)cc1)CC[C@H](O)C2 (single isomer, unassigned) [Compound 132] | > 0.45 | > 269000 | – | – |
| CCc1nc2n(c1C(=O)NCc1ccc(-c3nc4n(n3)CC[C@H](C(F)(F)F)C4)cc1)CC[C@H](OC)C2 (single isomer, unassigned) [Compound 135] | > 0.44 | > 224000 | – | – |
| CCc1nc2n(c1C(=O)NCc1ccc(-c3nc4n(n3)CC[C@H](C(F)(F)F)C4)cc1)CC[C@@H](C(F)(F)F)C2 (single isomer, unassigned) [Compound 136] | > 0.5 | > 501000 | – | – |
| CCc1nc2n(c1C(=O)NCc1ccc(-c3nc4n(n3)CC[C@H](C(F)(F)F)C4)cc1)CC[C@H](C(F)(F)F)C2 (single isomer, unassigned) [Compound 137] | > 0.5 | > 501000 | – | – |
| CCc1nc2n(c1C(=O)NCc1ccc(-c3nc4n(n3)CC[C@H](C(F)(F)F)C4)cc1)CC[C@@H](OC)C2 (single isomer, unassigned) [Compound 139] | > 0.45 | > 182000 | – | – |

| Structure (SMILES) | MIC90 [1] [µM] | IC50 [1] [pM] | Bacterial activity pMIC50 | MIC90 [µM] |
| --- | --- | --- | --- | --- |
| CCc1nc2ncc(C(F)(F)F)cn2c1C(=O)NCc1ccc(-c2nc3n(n2)CC[C@H](C)C3)cc1 (single isomer, unassigned) [Compound 191] | > 0.5 | > 501000 | – | – |
| CCc1nc2ncc(C)cn2c1C(=O)NCc1ccc(-c2nc3n(n2)CCC(C(F)(F)F)C3)nn1 (stereo not shown) [Compound 41] | > 0.5 | > 501000 | – | – |
| CCc1nc2ncc(C)cn2c1C(=O)NCc1ccc(-c2nc3n(n2)CCC(C(F)(F)F)C3)nc1 (stereo not shown) [Compound 43] | 0.37 (≈ 0.179 µg/mL) | 155000 | – | – |
| CCc1nc2ncc(C)cn2c1C(=O)NCc1cc(C)c(-c2nc3n(n2)CCC(C(F)(F)F)C3)c(F)c1 (stereo not shown) [Compound 44] | 0.21 (≈ 0.108 µg/mL) | 45700 | – | – |
| CCc1nc2ncc(C)cn2c1C(=O)NCc1cnc(-c2nc3n(n2)CCC(C(F)(F)F)C3)c(F)c1 (stereo not shown) [Compound 45] | 1.05 (≈ 0.528 µg/mL) | 245000 | – | – |
| CCc1nc2ncc(C)cn2c1C(=O)NCc1cnc(-c2nc3n(n2)CCC(C(F)(F)F)C3)c(C)c1 (stereo not shown) [Compound 46] | > 0.5 | > 501000 | – | – |
| O=C(NCc1cnc(-c2nc3n(n2)CCC(C(F)(F)F)C3)c(F)c1)c1c(C(F)(F)F)nc2ccccn12 (stereo not shown) [Compound 47] | > 0.5 | > 501000 | – | – |
| CCc1nc2ncc(OC)cn2c1C(=O)NCc1ccc(-c2nc3n(n2)CC[C@@H](C(F)(F)F)C3)cc1 [Compound 48] | 0.026 (≈ 0.013 µg/mL) | 8320 | – | – |
| CCc1nc2ccc(F)cn2c1C(=O)NCc1ccc(-c2nc3n(n2)CC[C@@H](C(F)(F)F)C3)cc1 [Compound 52] | 0.16 (≈ 0.0778 µg/mL) | 41700 | – | – |
| O=C(NCc1ccc(-c2nc3n(n2)CC[C@@H](C(F)(F)F)C3)cc1)c1c(C(F)(F)F)nc2ncccn12 [Compound 53] | 0.036 (≈ 0.0183 µg/mL) | 11000 | – | – |
| O=C(NCc1ccc(-c2nc3n(n2)CC[C@@H](C(F)(F)F)C3)cc1)c1c(C(F)(F)F)nc2n1CCCC2 [Compound 54] | 0.22 (≈ 0.113 µg/mL) | 72400 | – | – |
| CCc1nc2ccccn2c1C(=O)NCc1ccc(-c2nc3n(n2)CC[C@@H](C(F)(F)F)C3)cc1 [Compound 55] | 0.0086 (≈ 0.00403 µg/mL) | 2950 | – | – |
| CCc1nc2ccccn2c1C(=O)NCc1ccc(-c2nc3n(n2)CC[C@H](C(F)(F)F)C3)cc1 [Compound 57] | 0.022 (≈ 0.0103 µg/mL) | 6920 | – | – |
| O=C(NCc1ccc(-c2nc3n(n2)CC[C@H](C(F)(F)F)C3)cc1)c1c(C(F)(F)F)nc2n1CCCC2 [Compound 58] | 0.39 (≈ 0.2 µg/mL) | 95500 | – | – |
| O=C(NCc1ccc(-c2nc3n(n2)CC[C@H](C(F)(F)F)C3)cc1)c1c(C(F)F)nc2ccccn12 [Compound 60] | 0.067 (≈ 0.0329 µg/mL) | 17400 | – | – |
| O=C(NCc1ccc(-c2nc3n(n2)CC[C@@H](C(F)(F)F)C3)cc1)c1c(C(F)F)nc2ccccn12 [Compound 61] | 0.036 (≈ 0.0177 µg/mL) | 11000 | – | – |
| CCc1nc2ccc(C(F)(F)F)cn2c1C(=O)NCc1ccc(-c2nc3n(n2)CC[C@@H](C(F)(F)F)C3)cc1 [Compound 63] | > 0.46 | > 224000 | – | – |
| CCc1nc2ccc(C(F)(F)F)cn2c1C(=O)NCc1ccc(-c2nc3n(n2)CC[C@H](C(F)(F)F)C3)cc1 [Compound 64] | > 0.5 | > 501000 | – | – |
| CCc1nc2ncc(OC(F)(F)F)cn2c1C(=O)NCc1ccc(-c2nc3n(n2)CC[C@H](C(F)(F)F)C3)cc1 [Compound 84] | > 0.38 | > 93300 | – | – |
| CCc1nc2ncc(OC(F)(F)F)cn2c1C(=O)NCc1ccc(-c2nc3n(n2)CC[C@@H](C(F)(F)F)C3)cc1 [Compound 85] | > 0.5 | > 501000 | – | – |
| CCc1nc2ncccn2c1C(=O)NCc1ccc(-c2nc3n(n2)CC[C@@H](C(F)(F)F)C3)c(C)c1 [Compound 86] | – | – | 6.98 | 0.44 (≈ 0.213 µg/mL) |
| CCc1nc2ncccn2c1C(=O)NCc1ccc(-c2nc3n(n2)CC[C@H](C(F)(F)F)C3)c(C)c1 [Compound 87] | – | – | 6.97 | 0.47 (≈ 0.227 µg/mL) |
| CCc1nc2ncc(C)cn2c1C(=O)NCc1ccc(-c2cn3c(n2)CCCC3)cc1 [Compound 88] | 0.099 (≈ 0.041 µg/mL) | 37200 | – | – |
| CCc1nc2nc(C)c(Cl)cn2c1C(=O)NCc1ccc(-c2cn3c(n2)CC(C(F)(F)F)CC3)cc1 (stereo not shown) [Compound 90] | 0.15 (≈ 0.0775 µg/mL) | 60300 | – | – |
| CCc1nc2nc(C)ccn2c1C(=O)NCc1ccc(-c2nc3n(n2)CCC(C)C3)cc1 (stereo not shown) [Compound 92] | 0.2 (≈ 0.0859 µg/mL) | 61700 | – | – |
